Test results reported in patent US4988677A, “Macrolide antibiotic and its use as a medicinal agent” (Hoechst Aktiengesellschaft, priority 1986, dated 1991).

Key:
S. aureus 209P = assay: MIC of swalpamycin, agar plate test; assay type: cell-based, Staphylococcus aureus
Excerpt: (§1) The minimum inhibitory concentration (MIC) of swalpamycin has been determined for various microorganisms.

S. aureus 20424 Mac^R = assay: MIC of swalpamycin, agar plate test; assay type: cell-based, Staphylococcus aureus; conditions: S. aureus 20424 Mac^R (Mac = macrolide)
Excerpt: (§2) The minimum inhibitory concentration (MIC) of swalpamycin has been determined for various microorganisms. The results are to be found in Table I which follows:
(§3) *Mac = macrolide, Em = erythromycin, Meth = methicillin

S. aureus 3066 Meth.^R = assay: MIC of swalpamycin, agar plate test; assay type: cell-based, Staphylococcus aureus; conditions: S. aureus 3066 Meth.^R (Meth = methicillin)
Excerpt: as §2, §3

S. aureus 712 Meth^R = assay: MIC of swalpamycin, agar plate test; assay type: cell-based, Staphylococcus aureus; conditions: S. aureus 712 Meth^R (Meth = methicillin)
Excerpt: as §2, §3

S. aureus 789 Meth.^R = assay: MIC of swalpamycin, agar plate test; assay type: cell-based, Staphylococcus aureus; conditions: S. aureus 789 Meth.^R (Meth = methicillin)
Excerpt: as §2, §3

S. aureus MLS 11,Em^R = assay: MIC of swalpamycin, agar plate test; assay type: cell-based, Staphylococcus aureus; conditions: S. aureus MLS 11,Em^R (Em = erythromycin)
Excerpt: as §2, §3

S. aureus MLS 14,Em^R = assay: MIC of swalpamycin, agar plate test; assay type: cell-based, Staphylococcus aureus; conditions: S. aureus MLS 14,Em^R (Em = erythromycin)
Excerpt: as §2, §3

S. aureus MLS 16,Em^R = assay: MIC of swalpamycin, agar plate test; assay type: cell-based, Staphylococcus aureus; conditions: S. aureus MLS 16,Em^R (Em = erythromycin)
Excerpt: as §2, §3

S. aureus R 85,Em^R = assay: MIC of swalpamycin, agar plate test; assay type: cell-based, Staphylococcus aureus; conditions: S. aureus R 85,Em^R (Em = erythromycin)
Excerpt: as §2, §3

S. aureus R85/M, Em^R = assay: MIC of swalpamycin, agar plate test; assay type: cell-based, Staphylococcus aureus; conditions: Em^R (Em = erythromycin)
Excerpt: as §2, §3

Strept. faecalis UD 86 = assay: MIC of swalpamycin, agar plate test; assay type: cell-based, Streptococcus faecalis
Excerpt: as §1

[1] = system: Strept. faecalis Eder:Mac^R; assay: MIC of swalpamycin, agar plate test; assay type: cell-based, Streptococcus faecalis; conditions: Strept. faecalis Eder:Mac^R (Mac = macrolide)
Excerpt: as §2, §3

Bacillus subtilis [2] = assay: MIC of swalpamycin, agar plate test; assay type: cell-based
Excerpt: as §1

Candida albicans = assay: MIC of swalpamycin, agar plate test; assay type: cell-based
Excerpt: as §1

Cit. freundii = assay: MIC of swalpamycin, agar plate test; assay type: cell-based
Excerpt: as §1

E. coli 9632 = assay: MIC of swalpamycin, agar plate test; assay type: cell-based
Excerpt: as §1

E. coli ESS 2231 = assay: MIC of swalpamycin, agar plate test; assay type: cell-based
Excerpt: as §1

Ent. cloacae = assay: MIC of swalpamycin, agar plate test; assay type: cell-based
Excerpt: as §1

Micrococcus luteus [3] = assay: MIC of swalpamycin, agar plate test; assay type: cell-based
Excerpt: as §1

Pr. vulgaris = assay: MIC of swalpamycin, agar plate test; assay type: cell-based
Excerpt: as §1

Prov. stuartii = assay: MIC of swalpamycin, agar plate test; assay type: cell-based
Excerpt: as §1

Ps. aeruginosa M 35 = assay: MIC of swalpamycin, agar plate test; assay type: cell-based
Excerpt: as §1

Sarcina lutea [4] = assay: MIC of swalpamycin, agar plate test; assay type: cell-based
Excerpt: as §1

Bacillus subtilis [5] = assay: laboratory agar plate tests, antimicrobial spectrum; assay type: cell-based; conditions: strains of Bacillus subtilis
Excerpt: as §1

Micrococcus luteus [6] = assay: as above; assay type: cell-based; conditions: strains of Micrococcus luteus
Excerpt: as §1

Mycoplasma gallinarum = assay: as above; assay type: cell-based; conditions: strains of Mycoplasma gallinarum
Excerpt: as §1

Mycoplasma pulmonis = assay: as above; assay type: cell-based; conditions: strains of Mycoplasma pulmonis
Excerpt: as §1

Sarcina lutea [7] = assay: as above; assay type: cell-based; conditions: strains of Sarcina lutea
Excerpt: as §1

Staphylococcus aureus = assay: as above; assay type: cell-based; conditions: sensitive and resistant strains of Staphylococcus aureus
Excerpt: as §1

Streptococcus faecalis = assay: as above; assay type: cell-based; conditions: sensitive and resistant strains of Streptococcus faecalis
Excerpt: as §1

Streptococcus pyogenes = assay: as above; assay type: cell-based; conditions: strains of Streptococcus pyogenes
Excerpt: as §1

[8] = system: Gram-positive bacteria, including erythromycin-resistant strains; assay: antibacterial activity; assay type: cell-based
Excerpt: as §1

mycoplasma = assay: antimycoplasma activity; assay type: cell-based
Excerpt: as §1

solubility = assay type: physicochemical
Excerpt: Swalpamycin is a colorless amorphous powder which is soluble in methanol, ethanol, n-propanol, isopropanol, n-butanol, ethyl acetate, n-butyl acetate, acetone, ethyl methyl ketone, methyl isobutyl ketone, methylene chloride, chloroform, dimethylformamide and dimethyl sulfoxide.

COC1C(OCC2/C=C/C=C/C(=O)C(C)CC(C)C(OC3OC(C)CC4(OC(=O)OC4C)C3O)C(C)/C=C/C(=O)OC2C)OC(C)C(O)C1OC (stereo not drawn) [Swalpamycin, swalpamycin]
minimum inhibitory concentration (MIC) (S. aureus 209P): 6.3 | minimum inhibitory concentration (MIC) (S. aureus 20424 Mac^R): 50 | minimum inhibitory concentration (MIC) (S. aureus 3066 Meth.^R): 3.2 | minimum inhibitory concentration (MIC) (S. aureus 712 Meth^R): 12.5 | minimum inhibitory concentration (MIC) (S. aureus 789 Meth.^R): > 50 | minimum inhibitory concentration (MIC) (S. aureus MLS 11,Em^R): 25 | minimum inhibitory concentration (MIC) (S. aureus MLS 14,Em^R): 25 | minimum inhibitory concentration (MIC) (S. aureus MLS 16,Em^R): 12.5 | minimum inhibitory concentration (MIC) (S. aureus R 85,Em^R): 12.5 | minimum inhibitory concentration (MIC) (S. aureus R85/M, Em^R): > 50 | minimum inhibitory concentration (MIC) (Strept. faecalis UD 86): > 50 | minimum inhibitory concentration (MIC) [1]: > 50 | minimum inhibitory concentration (MIC) (Bacillus subtilis [2]): 0.1 | minimum inhibitory concentration (MIC) (Candida albicans): > 50 | minimum inhibitory concentration (MIC) (Cit. freundii): > 50 | minimum inhibitory concentration (MIC) (E. coli 9632): > 50 | minimum inhibitory concentration (MIC) (E. coli ESS 2231): > 50 | minimum inhibitory concentration (MIC) (Ent. cloacae): > 50 | minimum inhibitory concentration (MIC) (Micrococcus luteus [3]): 1.6 | minimum inhibitory concentration (MIC) (Pr. vulgaris): > 50 | minimum inhibitory concentration (MIC) (Prov. stuartii): > 50 | minimum inhibitory concentration (MIC) (Ps. aeruginosa M 35): > 50 | minimum inhibitory concentration (MIC) (Sarcina lutea [4]): 0.2 | antimicrobial activity in vitro (Bacillus subtilis [5]): acts in vitro | antimicrobial activity in vitro (Micrococcus luteus [6]): acts in vitro | antimicrobial activity in vitro (Mycoplasma gallinarum): acts in vitro | antimicrobial activity in vitro (Mycoplasma pulmonis): acts in vitro | antimicrobial activity in vitro (Sarcina lutea [7]): acts in vitro | antimicrobial activity in vitro (Staphylococcus aureus): acts in vitro against sensitive and resistant strains | antimicrobial activity in vitro (Streptococcus faecalis): acts in vitro against sensitive and resistant strains | antimicrobial activity in vitro (Streptococcus pyogenes): acts in vitro | activity [8]: active | activity (mycoplasma): active | solubility in hexane and petroleum ether (solubility; hexane, petroleum ether (40°-60°)): sparingly soluble or insoluble | solubility in organic solvents (solubility; methanol, ethanol, n-propanol, isopropanol, n-butanol, ethyl acetate, n-butyl acetate, acetone, ethyl methyl ketone, methyl isobutyl ketone, methylene chloride, chloroform, dimethylformamide, dimethyl sulfoxide): soluble | solubility in water (solubility; water): sparingly soluble or insoluble
